Peptide text beside a SMILES is read from it.

By Km is commonly meant the concentration of substrate that gives half-maximal velocity. The Vmax is the top rate of the reaction or transport when substrate is in excess. Broadly, the kcat is the maximal rate divided by the concentration of active sites. For orientation: kcat/Km means the turnover number divided by the Michaelis constant.

One data set concerns the target HsMetAP type-II enzyme (Homo sapiens, UniProt P50579). As to the kind of experiment: DTNB effect on catalytic activity of HsMetAP type-II. In kind it is biochemical. The note with it: 200 μM DTNB.
For data set [1], the target named is T1, EcMetAP-I (Escherichia coli, UniProt P0AE18).
T1 sequence (P0AE18 1-264): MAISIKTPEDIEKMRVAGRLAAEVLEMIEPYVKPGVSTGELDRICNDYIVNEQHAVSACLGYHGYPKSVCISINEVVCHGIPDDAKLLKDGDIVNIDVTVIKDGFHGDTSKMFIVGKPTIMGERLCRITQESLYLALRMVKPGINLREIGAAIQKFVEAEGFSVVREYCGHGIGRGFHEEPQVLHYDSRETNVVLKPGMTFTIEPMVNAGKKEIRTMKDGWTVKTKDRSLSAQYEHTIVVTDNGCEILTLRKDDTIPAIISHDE
As to the kind of experiment: DTNB inactivation of EcMetAP-I, hydrolysis of MP-p-NA. In kind it is biochemical, E. coli. The note with it: 200 μM DTNB, Co(II)-loaded EcMetAP-I, strict anaerobic conditions, pH 7.5, MP-p-NA hydrolysis. The procedure: In order to determine if Cys59 and Cys70 are involved in substrate recognition and binding, it was examined if the cysteine-specific chemical modification reagent, 5,5′-dithio-bis(2-nitrobenzoic acid) (DTNB) inhibits the hydrolysis of methionylprolyl-p-nitroanilide (MP-p-NA) by EcMetAP. A 200 μM solution of DTNB was prepared in 50 mM HEPES buffer, pH 7.5, […] and added to a […] sample of Co(II)-loaded EcMetAP-I under strict anaerobic conditions.

Data set [2] has as its target T2, PjMetAP-II (Pyrococcus furiosus, UniProt P56218). As to the kind of experiment: DTNB inactivation of type-II MetAP, identical experiments. The note with it: even after several hours. In kind it is biochemical.
The target in data set [3] is T3, C59A EcMetAP (Escherichia coli, UniProt P0AE18, C59A).
T3 construct: made in house
Put plainly: DTNB inactivation of C59A mutant enzyme. The settings on record: 10 μM DTNB. In kind it is biochemical, E. coli. The procedure: (§1) Since at least one surface accessible cysteine residue, in addition to Cys59 and Cys70, exists in EcMetAP-I, reaction of DTNB with other residues cannot be ruled out. In order to circumvent this problem, both the C59A and C70A EcMetAP-I mutant enzymes were prepared and purified using the QuikChange Site-directed Mutagenesis Kit (Stratagene) and each mutation was verified by nucleotide sequencing. Both mutant enzymes bind one equivalent of Co(II) or Fe(II) tightly, based on ICP-AES analysis, which is identical to wild-type EcMetAP, and their kinetic parameters are listed below. […] Moreover, the Km values for both Co(II)— and Fe(II)-loaded EcMetAP C59A and C70A double and quadruple, respectively.

The target in data set [4] is T4, C70A EcMetAP (Escherichia coli, UniProt P0AE18, C70A).
T4 construct: made in house
As to the kind of experiment: DTNB inactivation of C70A mutant enzyme. The note with it: compared with wild-type. In kind it is biochemical, E. coli. The procedure: as §1

Data set [5] has as its target T1, EcMetAP-I. Put plainly: MALDI-TOF analysis of EcMetAP-I with and without Inhibitor 1. In kind it is binding, E. coli. On the procedure:
Matrix-Assisted Laser Desorption Ionization-Time of Flight (MALDI-TOF) spectrometric analysis was performed on EcMetAP-I in both the presence and absence of Inhibitor 1.

The target in data set [6] is T2, PjMetAP-II. Put plainly: Reaction of type-II MetAP with Inhibitor 1 and Inhibitor 2, catalytic activity. In kind it is biochemical. The note with it: reaction for up to 12 hours. The procedure: (§2) Since only C59 appears to be accessible for covalent modification, two potential inhibitors (Inhibitor 1 and Inhibitor 2, as depicted in FIG. 10) were prepared based on molecular modeling, one of which contains a good leaving group (I^−) and should be susceptible to nucleophilic attack while the second will not undergo nucleophilic addition.

A further data set concerns the target T5, wild-type EcMetAP-I (Escherichia coli, UniProt P0AE18).
T5 sequence (P0AE18 1-264): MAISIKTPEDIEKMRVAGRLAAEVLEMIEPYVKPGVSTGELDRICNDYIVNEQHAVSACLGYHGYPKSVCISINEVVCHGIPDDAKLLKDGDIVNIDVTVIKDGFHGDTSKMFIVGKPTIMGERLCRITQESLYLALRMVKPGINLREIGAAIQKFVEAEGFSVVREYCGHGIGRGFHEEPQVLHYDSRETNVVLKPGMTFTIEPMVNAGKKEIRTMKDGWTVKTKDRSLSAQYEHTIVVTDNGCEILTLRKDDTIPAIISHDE
As to the kind of experiment: Reaction of wild-type EcMetAP-I with Inhibitor 1 and Inhibitor 2, catalytic activity. The note with it: reaction for up to 12 hours. In kind it is biochemical, E. coli. The procedure: as §2

Data set [7] concerns the target T3, C59A EcMetAP. Put plainly: Kinetic constants towards MGMM, C59A mutant. In kind it is biochemical, E. coli. The settings on record: 30° C., pH 7.5. The procedure:
as §1

For data set [8], the target named is T4, C70A EcMetAP. As to the kind of experiment: Kinetic constants towards MGMM, C70A mutant. The note with it: 30° C., pH 7.5. In kind it is biochemical, E. coli. The procedure:
as §1

Substrate in data set [9]: CSCC[C@H](NC(=O)[C@H](CCSC)NC(=O)CNC(=O)[C@@H](N)CCSC)C(=O)O
As to the kind of experiment: Kinetic constants towards MGMM, wild-type enzyme. In kind it is biochemical, E. coli. The note with it: 30° C., pH 7.5. The procedure:
as §1

Take `O=C(O)c1cc(SSc2ccc([N+](=O)[O-])c(C(=O)O)c2)ccc1[N+](=O)[O-]` [DTNB, 5,5′-dithio-bis(2-nitrobenzoic acid)]: at HsMetAP type-II enzyme, the “loss in catalytic activity” value was “no loss in catalytic activity”. Further, the “time until EcMetAP was completely inactive after addition of DTNB” value on EcMetAP-I [1] amounted to 50 min. In addition, the “inactivation due to DTNB” value on PjMetAP-II [2] is on record as “no inactivation”. The inactivation rate entry on C59A EcMetAP [3] (compared with wild-type) is on record as “slower rate”. Also, the “inactivation of the catalytic activity” value at C59A EcMetAP [3] (strict anaerobic conditions) is “complete inactivation”. Moreover, on C70A EcMetAP [4], the observed inactivation rate entry was “identical to wild-type enzyme”.

`O=P(O)(O)CCCCI` [Inhibitor 1, 4-iodobutylphosphonic acid]: on EcMetAP-I [5] (MALDI-TOF, enzyme alone 29,500±10), the “shift in mass peak of EcMetAP-I upon reaction (addition)” value is listed as 140 mass units. Also, the “mode of binding to EcMetAP-I” value on EcMetAP-I [5] (via C59, concluded from MALDI-TOF) is recorded as “covalently bound”. Also, the “inhibition of type-II MetAP” value on PjMetAP-II [6] is on record as “not significantly inhibited”. For the same molecule, the “effect on catalytic activity of EcMetAP-I” value on wild-type EcMetAP-I is “complete and irreversible loss in catalytic activity”.

`O=C(O)CCCCCP(=O)(O)O` [Inhibitor 2, 6-phosphonhexanoic acid]: the “inhibition of type-II MetAP” value at PjMetAP-II [6] is reported as “not significantly inhibited”. In addition, the “effect on catalytic activity of EcMetAP-I” value on wild-type EcMetAP-I is on record as “did not significantly alter”.

Regarding `CSCC[C@H](NC(=O)[C@H](CCSC)NC(=O)CNC(=O)[C@@H](N)CCSC)C(=O)O` [MGMM] (H-MGMM-OH), the Michaelis-Menten constant (Km) on C59A EcMetAP [7] (Co(II)-loaded) was found to be 6.4 ± 0.2 mM; on C59A EcMetAP [7] (Fe(II)-loaded), 8 ± 0.2 mM; at C70A EcMetAP [8] (Co(II)-loaded) it was 10 ± 0.2 mM; on C70A EcMetAP [8] (Fe(II)-loaded), 11 ± 0.2 mM.

B1: wild-type EcMetAP (Escherichia coli K-12) (protein)
chain: MAISIKTPEDIEKMRVAGRLAAEVLEMIEPYVKPGVSTGELDRICNDYIVNEQHAVSACLGYHGYPKSVCISINEVVCHGIPDDAKLLKDGDIVNIDVTVIKDGFHGDTSKMFIVGKPTIMGERLCRITQESLYLALRMVKPGINLREIGAAIQKFVEAEGFSVVREYCGHGIGRGFHEEPQVLHYDSRETNVVLKPGMTFTIEPMVNAGKKEIRTMKDGWTVKTKDRSLSAQYEHTIVVTDNGCEILTLRKDDTIPAIISHDE
For the molecule B1, in data set [9] (other: Co(II)-loaded), the Michaelis-Menten constant (Km) is 3.2 ± 0.1 mM, the maximum rate (Vmax) is 39 µmol/min/mg, the catalytic constant (kcat) was found to be 19.5 s⁻¹ and the kcat/Km worked out at 6100 M⁻¹ s⁻¹. In addition, in data set [9] (other: Fe(II)-loaded), the Michaelis-Menten constant (Km) is 2.0 ± 0.3 mM, the Vmax was determined as 55 µmol/min/mg, the kcat was 28 s⁻¹ and the specificity constant (kcat/Km) is 14000 M⁻¹ s⁻¹.

The record behind these values is patent US20050026873A1, “Type-I methionyl aminopeptidases inhibitors in antibacterial targeting” (priority 2003, published 2005).
